Like-named read-outs stand apart in the source and are kept apart here.

Common to all, as to test: Post-emergence efficacy, Method A
Holding throughout (format): in vivo

For experiment [1], the system named is Amaranthus palmeri (AMAPA). To be noted: Amaranthus palmeri, post-emergence, 312 h, evaluated after 13 days. The method, boiled down: (§1)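 Visual damage score, 0 (no damage) to 100 (total), taken 13 d after spraying. Pot-grown plants at 14 d post-sowing received an aqueous spray from a 50 g/l acetone/IF50 solution diluted in 0.25% or 1% Empicol ESC70 + 1% ammonium sulphate; glasshouse 24/16 °C, 14 h light, 65% RH, watered twice daily.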

Experiment [2] relates to Chenopodium album (CHEAL). Conditions: Chenopodium album, post-emergence, 312 h, evaluated after 13 days. In outline:
as §1

Experiment [3] concerns Echinochloa crus-galli (ECHCG). Conditions: Echinochloa crus-galli, post-emergence, 312 h, evaluated after 13 days. In outline: as §1
The next experiment concerns Lolium perenne (LOLPE). To be noted: Lolium perenne, post-emergence, 312 h, evaluated after 13 days. In outline: as §1
Experiment [4] concerns Digitaria sanguinalis (DIGSA). To be noted: Digitaria sanguinalis, post-emergence, 312 h, evaluated after 13 days. The method, boiled down:
as §1

A further experiment concerns Setaria faberi (SETFA). To be noted: Setaria faberi, post-emergence, 312 h, evaluated after 13 days. In outline:
as §1

The test system of a further experiment is Eleusine indica (ELEIN). Conditions: Eleusine indica, post-emergence, 312 h, evaluated after 13 days. The method, boiled down: as §1
Experiment [5] deals with Euphorbia heterophylla (EPHHL). Conditions: Euphorbia heterophylla, post-emergence, 312 h, evaluated after 13 days. In outline: as §1
Experiment [6] deals with Ipomoea hederacea (IPOHE). Conditions: Ipomoea hederacea, post-emergence, 312 h, evaluated after 13 days. In outline:
as §1

The mark [7] stands for this setting: Application rate 500 g/Ha, 100=total damage to plant, 0=no damage to plant, read-out: Control of weed species after post-emergence application, AMAPA.
Where [8] appears, read: Application rate 500 g/Ha, 100=total damage to plant, 0=no damage to plant, read-out: Control of weed species after post-emergence application, CHEAL.
Where [9] appears, read: Application rate 500 g/Ha, 100=total damage to plant, 0=no damage to plant, read-out: Control of weed species after post-emergence application, ECHCG.
Setting [10] is: Application rate 500 g/Ha, 100=total damage to plant, 0=no damage to plant, read-out: Control of weed species after post-emergence application, LOLPE.
The mark [11] stands for this setting: Application rate 500 g/Ha, 100=total damage to plant, 0=no damage to plant, read-out: Control of weed species after post-emergence application, DIGSA.
The mark [12] stands for this setting: Application rate 500 g/Ha, 100=total damage to plant, 0=no damage to plant, read-out: Control of weed species after post-emergence application, SETFA.
The mark [13] stands for this setting: Application rate 500 g/Ha, 100=total damage to plant, 0=no damage to plant, read-out: Control of weed species after post-emergence application, ELEIN.
[14] abbreviates: Application rate 500 g/Ha, 100=total damage to plant, 0=no damage to plant, read-out: Control of weed species after post-emergence application, EPHHL.
Where [15] appears, read: Application rate 500 g/Ha, 100=total damage to plant, 0=no damage to plant, read-out: Control of weed species after post-emergence application, IPOHE.
The mark [16] stands for this setting: Application Rate 500 g/Ha, Method A, read-out: Control of weed species after post-emergence application, AMAPA (100=total damage to plant; 0=no damage to plant).
[17] abbreviates: Application Rate 500 g/Ha, Method A, read-out: Control of weed species after post-emergence application, CHEAL (100=total damage to plant; 0=no damage to plant).
The mark [18] stands for this setting: Application Rate 500 g/Ha, Method A, read-out: Control of weed species after post-emergence application, ECHCG (100=total damage to plant; 0=no damage to plant).
[19] abbreviates: Application Rate 500 g/Ha, Method A, read-out: Control of weed species after post-emergence application, LOLPE (100=total damage to plant; 0=no damage to plant).
The mark [20] stands for this setting: Application Rate 500 g/Ha, Method A, read-out: Control of weed species after post-emergence application, DIGSA (100=total damage to plant; 0=no damage to plant).
The mark [21] stands for this setting: Application Rate 500 g/Ha, Method A, read-out: Control of weed species after post-emergence application, SETFA (100=total damage to plant; 0=no damage to plant).
[22] abbreviates: Application Rate 500 g/Ha, Method A, read-out: Control of weed species after post-emergence application, ELEIN (100=total damage to plant; 0=no damage to plant).
[23] abbreviates: Application Rate 500 g/Ha, Method A, read-out: Control of weed species after post-emergence application, EPHHL (100=total damage to plant; 0=no damage to plant).
The mark [24] stands for this setting: Application Rate 500 g/Ha, Method A, read-out: Control of weed species after post-emergence application, IPOHE (100=total damage to plant; 0=no damage to plant).

Take `Cc1cc(Cl)cnc1-c1cc[n+](CCCS(=O)(=O)[O-])nc1` [Compound A102]: the pest or weed control at 500 g/ha stood at 20% in [1] (setting [7]); 50% in [2] (setting [8]); 10% in experiment [3] (setting [9]); 10% in the experiment on Lolium perenne (LOLPE) (setting [10]); 10% in experiment [4] (setting [11]); 10% in the experiment with Setaria faberi (SETFA) (setting [12]). In addition, the pest or weed control at 500 g/ha stood at 10% in the experiment on Eleusine indica (ELEIN) (setting [13]), 20% in experiment [5] (setting [14]) and 0% in experiment [6] (setting [15]).
For `N[C@@H](CC[n+]1ccc(-c2ncccn2)cn1)C(=O)O` [Compound A201, [(1S)-1-carboxy-3-(4-pyrimidin-2-ylpyridazin-1-ium-1-yl)propyl]ammonium 2,2,2-trifluoroacetate], the pest or weed control at 500 g/ha in experiment [1] (setting [16]) was 100%; in experiment [2] (setting [17]), 100%; in experiment [3] (setting [18]), 70%; in the experiment on Lolium perenne (LOLPE) (setting [19]) it was 30%; in experiment [4] (setting [20]), 80%; with Setaria faberi (SETFA) (setting [21]) it was 80%. Also, the pest or weed control at 500 g/ha in the experiment on Eleusine indica (ELEIN) (setting [22]) amounted to 100%; in experiment [5] (setting [23]), 90%; in experiment [6] (setting [24]), 40%.
For `CC(C)(CC(=O)O)[n+]1ccc(-c2ccncn2)cn1` [Compound A189], the pest or weed control at 500 g/ha in experiment [1] (setting [16]) was found to be 100%; in experiment [2] (setting [17]), 100%; in [3] (setting [18]), 80%; in the experiment on Lolium perenne (LOLPE) (setting [19]) it was 30%; in experiment [4] (setting [20]) it was 50%; in the experiment on Setaria faberi (SETFA) (setting [21]) it was 70%. Besides, the pest or weed control at 500 g/ha with Eleusine indica (ELEIN) (setting [22]) was 90%; in [5] (setting [23]), 90%; in experiment [6] (setting [24]), 70%.
With `COc1cc(C)nc(-c2cc[n+](CCC(=O)[O-])nc2)n1` [Compound A105], the pest or weed control at 500 g/ha in experiment [1] (setting [7]) was 90%; in experiment [2] (setting [8]), 20%; in experiment [3] (setting [9]) it was 40%; in the experiment with Lolium perenne (LOLPE) (setting [10]) it was 50%; in [4] (setting [11]) it was 60%; in the experiment on Setaria faberi (SETFA) (setting [12]), 90%. Further, the values for the pest or weed control at 500 g/ha (in the experiment with Eleusine indica (ELEIN) (setting [13]); in [5] (setting [14]); in [6] (setting [15])) were 20%, 50% and 0%, respectively.
Consider `Cc1cnc(-c2cc[n+](CCS(=O)(=O)[O-])nc2)c(F)c1` [Compound A135], for which the pest or weed control at 500 g/ha in experiment [1] (setting [7]) worked out at 60%; in [2] (setting [8]) it was 20%; in experiment [3] (setting [9]), 50%; in the experiment with Lolium perenne (LOLPE) (setting [10]) it was 60%; in [4] (setting [11]) it was 30%; in the experiment with Setaria faberi (SETFA) (setting [12]), 50%. The pest or weed control at 500 g/ha in the experiment on Eleusine indica (ELEIN) (setting [13]) was 70%; in experiment [5] (setting [14]), 50%; in experiment [6] (setting [15]) it was 30%.
With `Cc1cc(Cl)cnc1-c1cc[n+](CCS(=O)(=O)[O-])nc1` [Compound A103], the pest or weed control at 500 g/ha in [1] (setting [7]) was determined as 0%; in experiment [2] (setting [8]) it was 50%; in experiment [3] (setting [9]), 30%; in the experiment on Lolium perenne (LOLPE) (setting [10]), 10%; in experiment [4] (setting [11]), 20%; with Setaria faberi (SETFA) (setting [12]), 10%. Also, the pest or weed control at 500 g/ha was 30% in the experiment on Eleusine indica (ELEIN) (setting [13]), 50% in [5] (setting [14]) and 30% in [6] (setting [15]).
For the molecule `CCOC(=O)CC[n+]1ccc(-c2ncccn2)cn1` [Compound A82], the pest or weed control at 500 g/ha in experiment [1] (setting [7]) was determined as 70%; in [2] (setting [8]), 80%; in experiment [3] (setting [9]), 30%; in the experiment on Lolium perenne (LOLPE) (setting [10]), 0%; in experiment [4] (setting [11]), 30%; with Setaria faberi (SETFA) (setting [12]), 60%. Moreover, the pest or weed control at 500 g/ha in the experiment on Eleusine indica (ELEIN) (setting [13]) came out at 60%; in experiment [5] (setting [14]), 40%; in experiment [6] (setting [15]) it was 20%.
Take `O=S(=O)([O-])CC[n+]1ccc(-c2ncc(C(F)(F)F)cc2Cl)cn1` [Compound A175]: the pest or weed control at 500 g/ha in [1] (setting [16]) was determined as 30%; in [2] (setting [17]), 60%; in [3] (setting [18]), 30%; in the experiment on Lolium perenne (LOLPE) (setting [19]), 10%; in experiment [4] (setting [20]), 40%; in the experiment on Setaria faberi (SETFA) (setting [21]), 30%. For the same molecule, the pest or weed control at 500 g/ha in the experiment on Eleusine indica (ELEIN) (setting [22]) was determined as 40%; in [5] (setting [23]) it was 30%; in experiment [6] (setting [24]), 20%.
In the case of `Cc1cncc(-c2cc[n+](CCC(=O)O)nc2)n1` [Compound A85], the pest or weed control at 500 g/ha in [1] (setting [7]) was 90%; in experiment [2] (setting [8]), 90%; in experiment [3] (setting [9]), 70%; in the experiment with Lolium perenne (LOLPE) (setting [10]), 70%; in experiment [4] (setting [11]) it was 90%; in the experiment on Setaria faberi (SETFA) (setting [12]), 90%. Besides, the pest or weed control at 500 g/ha in the experiment with Eleusine indica (ELEIN) (setting [13]) was 90%; in experiment [5] (setting [14]), 100%; in experiment [6] (setting [15]) it was 30%.
In the case of `O=c1cc(-c2cc[n+](CCCS(=O)(=O)[O-])nc2)nc[nH]1` [Compound A116], the pest or weed control at 500 g/ha in experiment [1] (setting [7]) was determined as 100%; in experiment [2] (setting [8]), 80%; in experiment [3] (setting [9]), 20%; with Lolium perenne (LOLPE) (setting [10]), 10%; in experiment [4] (setting [11]), 30%; in the experiment with Setaria faberi (SETFA) (setting [12]) it was 30%. In addition, the figures for the pest or weed control at 500 g/ha (in the experiment on Eleusine indica (ELEIN) (setting [13]); in experiment [5] (setting [14]); in experiment [6] (setting [15])) were 20%, 50% and 10%, respectively.
Consider `N[C@H](CC[n+]1ccc(-c2ccncn2)cn1)C(=O)O` [Compound A235], for which the pest or weed control at 500 g/ha in [1] (setting [16]) turned out to be 10%; in experiment [2] (setting [17]) it was 40%; in experiment [3] (setting [18]), 30%; in the experiment with Lolium perenne (LOLPE) (setting [19]), 0%; in experiment [4] (setting [20]), 40%; with Setaria faberi (SETFA) (setting [21]) it was 30%. Besides, the pest or weed control at 500 g/ha in the experiment with Eleusine indica (ELEIN) (setting [22]) is 10%; in experiment [5] (setting [23]), 20%; in experiment [6] (setting [24]) it was 20%.
As to `CC(CC(=O)O)[n+]1ccc(-c2ccncn2)cn1` (stereo not drawn) [Compound A172], the pest or weed control at 500 g/ha turned out to be 30% in experiment [1] (setting [16]); 60% in [2] (setting [17]); 50% in experiment [3] (setting [18]); 20% with Lolium perenne (LOLPE) (setting [19]); 80% in experiment [4] (setting [20]); 50% with Setaria faberi (SETFA) (setting [21]). In addition, the pest or weed control at 500 g/ha in the experiment on Eleusine indica (ELEIN) (setting [22]) is 70%; in [5] (setting [23]), 50%; in [6] (setting [24]), 40%.

The record behind these values is US20220125051A1, “PRE-HARVEST DESICCATION METHOD” (SYNGENTA CROP PROTECTION AG, priority 2019, published 2022).
